Measurements published in paper PMC9228535, “Antistaphylococcal Activities and ADME-Related Properties of Chlorinated Arylcarbamoylnaphthalenylcarbamates” (Pharmaceuticals, 2022).
≈ marks a conversion by molar mass, not a printed value. Like-named read-outs stand apart in the source and are kept apart here.

Key:
[1] = system: Staphylococcus aureus ATCC 29213; test: MIC, microtitration broth method; type: cell-based; conditions: ATCC29213, SA = S. aureus ATCC 29213, 24 h, read-out: MIC
Description: (§1) All the investigated compounds were screened for in vitro antibacterial activity against the reference and quality control strain Staphylococcus aureus ATCC 29213 and clinical isolates of methicillin-resistant S. aureus (MRSA) 63718, SA 630, and SA 3202 [14]. Activities are expressed as the minimum inhibitory concentrations (MICs), see Table 2. In addition to the MICs, the minimum bactericidal concentrations (MBCs) were also determined.
(§2) In vitro antibacterial activity of the synthesized compounds was evaluated against representatives of multidrug-resistant bacteria, three clinical isolates of methicillin-resistant S. aureus: clinical isolate of animal origin, MRSA 63718 (Department of Infectious Diseases and Microbiology, Faculty of Veterinary Medicine, University of Veterinary Sciences Brno, Czech Republic), carrying the mecA gene; and MRSA SA 630 [46] and MRSA SA 3202 [46] (National Institute of Public Health, Prague, Czech Republic), both of human origin. Suspected colonies were confirmed by PCR; a 108bp fragment specific for S. aureus was detected. All isolates were tested for the presence of the mecA gene encoding methicillin resistance. […] Vancomycin-susceptible methicillin-susceptible S. aureus (VS-MSSA) ATCC 29213, obtained from the American Type Culture Collection, was used as the reference and quality control strain. Enterococcus faecalis ATCC 29212 was obtained from the American Type Culture Collection and used as the reference and quality control strain.
(§3) The minimum inhibitory concentrations (MICs) were evaluated by the microtitration broth method according to the CLSI [64, 65] with some modifications. The compounds were dissolved in DMSO (Sigma, St. Louis, MO, USA) to get a concentration […] and diluted in a microtitration plate in an appropriate medium, namely, Cation Adjusted Mueller–Hinton (CaMH, Oxoid, Basingstoke, UK) for staphylococci (S. aureus ATCC 29213, clinical isolates of MRSA 63718, SA 630, and SA 3202) and brain heart infusion (BHI, Oxoid) for E. faecalis ATCC 29212, to reach the final concentration of 256-0.125 µg/mL. The plate was inoculated by the tested microorganisms. The final concentration of bacterial cells was 10^5 for bacteria. Ampicillin (Sigma) was used as reference drugs. A drug-free control and a sterility control were included. The plates were incubated for 24 h at 37 °C for staphylococci and E. faecalis ATCC 29212 (stability evaluation of the carbamates, see Supplementary materials, Table S1). […] The experiments were repeated three times.

MRSA 63718 [2] = test: MIC, microtitration broth method; type: cell-based; conditions: Staphylococcus aureus
Description: as §1, §2, §3

MRSA SA 3202 [3] = test: MIC, microtitration broth method; type: cell-based; conditions: Staphylococcus aureus
Description: as §1, §2, §3

MRSA SA 630 [4] = test: MIC, microtitration broth method; type: cell-based; conditions: Staphylococcus aureus
Description: as §1, §2, §3

[5] = system: Staphylococcus aureus ATCC 29213; test: MBC, agar aliquot subculture method; type: cell-based; conditions: ATCC29213, SA = S. aureus ATCC 29213, read-out: MBC
Description: as §1
(§4) For the S. aureus and MRSA isolates, the agar aliquot subculture method was used as a test for bactericidal agents. After the MIC value determination, the inoculum was transferred to Mueller–Hinton (Oxoid) agar using a multipoint inoculator. The plates were incubated in a thermostat at 37 °C for 24 h. The lowest concentration of test compound at which ≤5 colonies were obtained was then evaluated as MBC, corresponding to a 99.9% decrease in CFU relative to the original inoculum.

MRSA 63718 [6] = test: MBC, agar aliquot subculture method; type: cell-based; conditions: Staphylococcus aureus
Description: as §1, §4

MRSA SA 3202 [7] = test: MBC, agar aliquot subculture method; type: cell-based; conditions: Staphylococcus aureus
Description: as §1, §4

MRSA SA 630 [8] = test: MBC, agar aliquot subculture method; type: cell-based; conditions: Staphylococcus aureus
Description: as §1, §4

THP-1 cells = test: In vitro cytotoxicity assay (WST-1); type: cell-based; conditions: Homo sapiens; THP-1, 24 h, ± SD, n = 6; read-out: IC50
Description: Preliminary in vitro cytotoxicity screening of the investigated compounds was performed using human monocytic leukemia THP-1 cells, see Table 2. The ability to inhibit the human cancer cell viability (IC50) of the compounds was compared to camptothecin toxicity (0.16 ± 0.07 μM). […] However, these values are up to two orders of magnitude higher than their significant antistaphyloccocal concentrations. This fact is also taken into account in the calculated selectivity index (SI), Table 2, where for only three compounds the SI is <20, while for the rest of the agents SI is >20, and for some derivatives even 100 and more. Thus, based on all these observations, it can be concluded that all the tested derivatives can be considered as in vitro non-toxic compounds for the subsequent design of new therapeutic agents.
The human THP-1 cell line (European Collection of Cell Cultures, Salisbury, UK) was cultured in RPMI 1640 medium supplemented with 10% fetal bovine serum, 2% L-glutamine, 1% penicillin, and streptomycin at 37 °C with 5% CO2. Cells were passaged at approximately 1-week intervals. All the tested compounds were prepared and dissolved as mentioned in our previous work.

[9] = Lipophilicity determination by RP-HPLC (log k, log D); type: physicochemical; conditions: for log D6.5 / log D7.4 / log k: RP-HPLC; for log D6.5: MeOH 72%/acetate buffered saline pH 6.5; for log D7.4: MeOH 72%/acetate buffered saline pH 7.4; for log k: MeOH 72%/water 28%
Description: Lipophilicity was measured by reversed-phase high performance liquid chromatography (RP-HPLC) under isocratic conditions with methanol as the organic modifier in the aqueous mobile phase and the logarithm of the capacity factor k was calculated, which is used as the lipophilicity index converted to the log P scale. In addition to the log k values, the logarithm of the distribution coefficient DpH at pH 6.5 and 7.4 was determined to clarify the behavior of the compounds under physiological conditions and possible ionization. Instead of water, a buffer of suitable pH was used as part of the mobile phase. In addition to the above-mentioned experimental methods, commercially available ChemBioDraw Ultra 13.0 and ACD/Percepta ver. […] In addition to lipophilicity, other parameters discussed in Ro5, such as molecular weight, number of H-bond donors/acceptors, as well as parameters not reported in Ro5, but characterizing the physicochemical properties of the prepared molecules, such as number of rotatable bonds, were predicted using ACD/Percepta. Moreover, for each R substituent, bulkiness expressed as molar volume (MV [cm^3]), a parameter describing the tail length/branching of each carbamates, was calculated.
A HPLC separation module Agilent 1200 Series (Agilent Technologies, Santa Clara, CA, USA) equipped with a Dual Absorbance Detector (DAD SL G1315C, Agilent Technologies) was used. A chromatographic column Symmetry® C18 5 μm, 4.6 × 250 mm, Part No. W21751W016 (Waters Corp, Milford, MA, USA) was used. The HPLC separation process was monitored by ChemStation for LC 3D systems (Agilent Technologies). […] The total flow of the column was 1.0 mL/min, injection 20 μL, column temperature 40 °C, and sample temperature 10 °C. The detection wavelength of 210 nm was chosen. A KI methanolic solution was used for the determination of the dead times (tD). Retention times (tR) were measured in minutes. The capacity factors k were calculated according to the formula k = (tR − tD)/tD, where tR is the retention time of the solute, and tD is the dead time obtained using an unretained analyte. The distribution coefficients DpH were calculated according to the formula DpH = (tR − tD)/tD. Each experiment was repeated three times.

[10] = system: Enterococcus faecalis ATCC 29212; test: MIC, microtitration broth method; type: cell-based; conditions: for MIC: ATCC29212, EF = Enterococcus faecalis, 24 h, read-out: MIC
Description: as §2, §3

Compound	MIC [1] [µM]	MBC [5] [µM]	IC50 (THP-1 cells) [µM]	MIC (MRSA 63718 [2]; MRSA, 24 h) [µM]	MIC (MRSA SA 3202 [3]; 24 h) [µM]	MIC (MRSA SA 630 [4]; 24 h) [µM]	log D6.5 [9]	log D7.4 [9]	log k [9]	MIC [10] [µM]	MBC (MRSA 63718 [6]; MRSA) [µM]	MBC (MRSA SA 3202 [7]) [µM]	MBC (MRSA SA 630 [8]) [µM]	other results
CC1(C)S[C@@H]2[C@H](NC(=O)[C@H](N)c3ccccc3)C(=O)N2[C@H]1C(=O)O [APM, ampicillin, reference compound]	5.72 (≈ 2 µg/mL)	> 5.72	–	–	–	–	–	–	–	–	–	–	–	MIC (MRSA 63718 [2]; MRSA1 = MRSA 63718, 24 h, read-out: MIC): 45.8 µM (≈ 16 µg/mL); MIC (MRSA SA 3202 [3]; MRSA3 = SA 3202, 24 h, read-out: MIC): 45.8 µM (≈ 16 µg/mL); MIC (MRSA SA 630 [4]; MRSA2 = SA 630, 24 h, read-out: MIC): 45.8 µM (≈ 16 µg/mL); MBC (MRSA 63718 [6]; MRSA1 = MRSA 63718, read-out: MBC): > 45.8 µM; MBC (MRSA SA 3202 [7]; MRSA3 = SA 3202, read-out: MBC): > 45.8 µM; MBC (MRSA SA 630 [8]; MRSA2 = SA 630, read-out: MBC): > 45.8 µM
CC[C@@]1(O)C(=O)OCc2c1cc1n(c2=O)Cc2cc3ccccc3nc2-1 [CMT, camptothecin, reference compound]	–	–	0.16 ± 0.07	–	–	–	–	–	–	–	–	–	–	–
CCCNC(=O)Oc1c(C(=O)Nc2cc(Cl)c(Cl)cc2Cl)ccc2ccccc12 [Compound 3, 2-[N-(2,4,5-Trichlorophenyl)carbamoyl]naphthalen-1-yl propyl carbamate]	0.035 (≈ 0.0158 µg/mL)	0.035 (≈ 0.0158 µg/mL)	3.12 ± 0.07	0.139 (≈ 0.0628 µg/mL)	0.071 (≈ 0.0321 µg/mL)	0.553 (≈ 0.25 µg/mL)	0.9734	0.9793	0.9689	283 (≈ 128 µg/mL)	0.277 (≈ 0.125 µg/mL)	0.071 (≈ 0.0321 µg/mL)	0.553 (≈ 0.25 µg/mL)	–
CCCCCNC(=O)Oc1c(C(=O)Nc2cc(Cl)c(Cl)cc2Cl)ccc2ccccc12 [Compound 5, 2-[N-(2,4,5-Trichlorophenyl)carbamoyl]naphthalen-1-yl pentyl carbamate]	0.067 (≈ 0.0321 µg/mL)	0.067 (≈ 0.0321 µg/mL)	3.44 ± 0.04	0.261 (≈ 0.125 µg/mL)	0.131 (≈ 0.0629 µg/mL)	0.261 (≈ 0.125 µg/mL)	1.3072	1.3168	1.3051	267 (≈ 128 µg/mL)	0.261 (≈ 0.125 µg/mL)	0.131 (≈ 0.0629 µg/mL)	0.521 (≈ 0.25 µg/mL)	–
CCCCCCNC(=O)Oc1c(C(=O)Nc2cc(Cl)c(Cl)cc2Cl)ccc2ccccc12 [Compound 6, 2-[N-(2,4,5-Trichlorophenyl)carbamoyl]naphthalen-1-yl hexyl carbamate]	0.128 (≈ 0.0632 µg/mL)	0.128 (≈ 0.0632 µg/mL)	3.2 ± 0.19	0.253 (≈ 0.125 µg/mL)	0.253 (≈ 0.125 µg/mL)	0.253 (≈ 0.125 µg/mL)	1.4899	1.4990	1.4883	259 (≈ 128 µg/mL)	0.253 (≈ 0.125 µg/mL)	0.253 (≈ 0.125 µg/mL)	0.506 (≈ 0.25 µg/mL)	–
CCCCCCCNC(=O)Oc1c(C(=O)Nc2cc(Cl)c(Cl)cc2Cl)ccc2ccccc12 [Compound 7, 2-[N-(2,4,5-Trichlorophenyl)carbamoyl]naphthalen-1-yl heptyl carbamate]	0.124 (≈ 0.063 µg/mL)	0.124 (≈ 0.063 µg/mL)	3.19 ± 0.44	0.246 (≈ 0.125 µg/mL)	0.246 (≈ 0.125 µg/mL)	0.246 (≈ 0.125 µg/mL)	1.6765	1.6863	–	63 (≈ 32 µg/mL)	0.246 (≈ 0.125 µg/mL)	0.246 (≈ 0.125 µg/mL)	0.492 (≈ 0.25 µg/mL)	anti-enterococcal activity (in words) ([10]; E. faecalis ATCC 29212): moderate activity
CCCCCCCCNC(=O)Oc1c(C(=O)Nc2cc(Cl)c(Cl)cc2Cl)ccc2ccccc12 [Compound 8, 2-[N-(2,4,5-Trichlorophenyl)carbamoyl]naphthalen-1-yl octyl carbamate]	0.479 (≈ 0.25 µg/mL)	0.958 (≈ 0.5 µg/mL)	2.61 ± 0.32	0.958 (≈ 0.5 µg/mL)	1.92 (≈ 1 µg/mL)	0.479 (≈ 0.25 µg/mL)	1.8687	1.8785	1.8654	123 (≈ 64.2 µg/mL)	1.92 (≈ 1 µg/mL)	1.92 (≈ 1 µg/mL)	1.92 (≈ 1 µg/mL)	lipophilicity (experimental log k/log D, approximate) [9]: ca. 1.87
CC(C)NC(=O)Oc1c(C(=O)Nc2cc(Cl)c(Cl)cc2Cl)ccc2ccccc12 [Compound 9, 2-[N-(2,4,5-Trichlorophenyl)carbamoyl]naphthalen-1-yl isopropyl carbamate]	0.018 (≈ 0.00813 µg/mL)	0.018 (≈ 0.00813 µg/mL)	3.26 ± 0.08	0.139 (≈ 0.0628 µg/mL)	0.277 (≈ 0.125 µg/mL)	0.035 (≈ 0.0158 µg/mL)	0.9579	1.0468	0.9526	142 (≈ 64.1 µg/mL)	0.139 (≈ 0.0628 µg/mL)	0.277 (≈ 0.125 µg/mL)	0.277 (≈ 0.125 µg/mL)	–
O=C(NC1CCCC1)Oc1c(C(=O)Nc2cc(Cl)c(Cl)cc2Cl)ccc2ccccc12 [Compound 10, 2-[N-(2,4,5-Trichlorophenyl)carbamoyl]naphthalen-1-yl cyclopentyl carbamate]	0.262 (≈ 0.125 µg/mL)	0.262 (≈ 0.125 µg/mL)	3.23 ± 0.29	0.262 (≈ 0.125 µg/mL)	2.09 (≈ 0.999 µg/mL)	0.262 (≈ 0.125 µg/mL)	1.1521	1.1515	1.1481	268 (≈ 128 µg/mL)	0.262 (≈ 0.125 µg/mL)	2.09 (≈ 0.999 µg/mL)	1.05 (≈ 0.5 µg/mL)	lipophilicity (experimental log k/log D, approximate) [9]: ca. 1.15
